Legend:
[1] = Cytotoxicity analysis, MTS assay; assay type: cell-based; details: human, SH-SY5Y neuroblastoma cells, MTS, 12 h post treatment, read-out: LC50 (dose corresponding to 50% viability)
Procedure: (§1) SH-SY5Y neuroblastoma cells purchased from ATCC (Manassas, VA, USA) were cultured in Dulbecco’s modified Eagle medium (DMEM) without phenol red and supplemented with 10% heat inactivated human AB serum, 4 mM L-glutamine, and 1% penicillin/streptomycin. As the oxidation of spermine by various polyamine oxidases has been documented in cell culture containing ruminant serum, such as in fetal bovine serum (FBS) and horse serum, human AB serum was used to prevent assay interference. The cells were maintained in 5% CO2 humidified atmosphere at 37 °C. Cell media was replaced every 2 days and the cells were discarded after a maximum of 15 passages.
(§2) The SH-SY5Y neuroblastoma cells were plated in 96-well plates at a density of 30,000 cells/well and allowed to reach 80% confluence, followed by treatment with varying concentrations of inhibitor ranging from 0 to 10 mM for 12 h. Cell viability was assessed by standard MTS assay, in which MTS reagent was added to each well at a concentration of 0.33 mg/mL and incubated at 37 °C for 3 h. Viability was monitored and confirmed by a visual inspection of the cells. Absorbance was read at 490 nm and the absorbance values were normalized to background wells containing varying concentrations of inhibitor, cell media, and MTS reagent. Colorimetric readout was obtained using a SpectraMax M5 plate reader (Molecular Devices) equipped with SOFTmax PRO 7.0.3 software.

[2] = test system: SH-SY5Y neuroblastoma cells; experiment: Cytotoxicity analysis, MTS assay; assay type: cell-based; details: doses below 1 mM
Procedure: as §1, §2

recombinant human MAO-B = molecular target: T1, recombinant human MAO-B (Homo sapiens, UniProt P27338); experiment: MAO-Glo assay, MAO-B; assay type: biochemical; details: read-out: % Inhibition at 20 μM ± SD, MAO-B
T1 construct: purchased Sigma-Aldrich M7441-1VL
T1 sequence (P27338 1-520): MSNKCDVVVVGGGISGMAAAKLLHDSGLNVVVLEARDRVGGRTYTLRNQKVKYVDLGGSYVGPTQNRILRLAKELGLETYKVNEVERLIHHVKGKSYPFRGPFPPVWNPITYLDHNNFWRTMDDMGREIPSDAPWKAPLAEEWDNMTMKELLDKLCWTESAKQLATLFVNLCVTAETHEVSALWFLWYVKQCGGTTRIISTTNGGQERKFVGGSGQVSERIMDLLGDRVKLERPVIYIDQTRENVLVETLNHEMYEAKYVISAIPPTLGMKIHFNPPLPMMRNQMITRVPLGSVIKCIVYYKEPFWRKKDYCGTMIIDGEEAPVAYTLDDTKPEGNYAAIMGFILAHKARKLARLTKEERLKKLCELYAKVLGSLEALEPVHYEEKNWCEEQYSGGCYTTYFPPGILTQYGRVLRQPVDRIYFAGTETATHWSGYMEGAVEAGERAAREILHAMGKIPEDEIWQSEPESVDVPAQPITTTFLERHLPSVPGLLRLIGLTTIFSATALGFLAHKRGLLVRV
Procedure: To determine selectivity, the compounds were tested for activity against the related FAD-dependent amine oxidase enzymes LSD1, MAO-A, and MAO-B. LSD1 activity was assessed using a commercially available assay kit (#700120, Cayman Chemical, Ann Arbor, MI, USA), in which the enzyme activity was determined by the horseradish peroxidase-catalyzed oxidation of 10-acetyl-3,7-dihydroxyphenoxazine to the highly fluorescent resorufin in response to H2O2 production. Monoamine oxidase activity was determined using recombinant human MAO-A and MAO-B (M7316-1VL & M7441-1VL, Sigma-Aldrich, St. Louis, MO, USA) and a commercially available assay kit (#V1401, MAO-Glo, Promega, Madison, WI, USA), which utilizes the MAO-catalyzed oxidation of a luciferin derivative coupled with esterase activity to produce luminescence. Fluorescent and luminescent readout was obtained using a SpectraMax M5 plate reader (Molecular Devices) equipped with SOFTmax PRO 7.0.3 software. […] Values were reported as mean % inhibition ± SD of triplicate assay wells normalized to background activity and compared to the vehicle control.

LSD1 = molecular target: T2, LSD1 (Homo sapiens, UniProt O60341); experiment: LSD1 selectivity assay (Cayman kit, resorufin fluorescence); assay type: biochemical; details: read-out: % Inhibition at 20 μM ± SD, LSD1
T2 construct: purchased Cayman Chemical #700120

SMOX [3] = molecular target: T3, SMOX (Homo sapiens, UniProt Q9NWM0); experiment: SMOX enzyme activity, HRP-luminol chemiluminescence assay; assay type: biochemical; details: 2 mM spermine
T3 construct: using 0.3 µg/mL of purified SMOX enzyme and 2 mM of spermine substrate
T3 sequence (Q9NWM0 whole entry): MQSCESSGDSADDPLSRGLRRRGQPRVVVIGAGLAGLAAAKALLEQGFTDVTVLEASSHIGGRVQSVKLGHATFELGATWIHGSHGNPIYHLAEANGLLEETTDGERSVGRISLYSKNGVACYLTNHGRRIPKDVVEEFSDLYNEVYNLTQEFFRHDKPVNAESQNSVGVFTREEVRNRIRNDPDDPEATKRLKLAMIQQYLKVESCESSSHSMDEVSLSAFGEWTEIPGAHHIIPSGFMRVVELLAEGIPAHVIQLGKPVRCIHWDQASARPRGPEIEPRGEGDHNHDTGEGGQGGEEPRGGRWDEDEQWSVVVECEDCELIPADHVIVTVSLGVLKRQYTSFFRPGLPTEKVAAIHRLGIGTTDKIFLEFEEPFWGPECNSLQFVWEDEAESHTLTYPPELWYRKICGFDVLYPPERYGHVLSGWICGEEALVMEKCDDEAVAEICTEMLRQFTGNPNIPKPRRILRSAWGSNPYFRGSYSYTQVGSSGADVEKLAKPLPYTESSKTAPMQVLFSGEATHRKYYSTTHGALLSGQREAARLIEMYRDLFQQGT
Procedure: As the catabolism of spermine by SMOX results in the stoichiometric production of H2O2, enzyme activity was quantified by chemiluminescence generated by the horseradish peroxidase-catalyzed oxidation of luminol in 96-well plates (Costar #3912; white, flat bottom), as previously described. All assays were performed in 0.083 M glycine buffer at a pH of 8 using 0.3 µg/mL of purified SMOX enzyme and 2 mM of spermine substrate. Phosphate buffer was not used to prevent the formation of polyamine–phosphate complexes. Enzyme reactions were initiated by the addition of SMOX and HRP to all other assay components; inhibitors were not pre-incubated with enzyme. Triplicate determinations were obtained for each measurement by recording the luminescence (AUC) over 60 s. Hit compounds were then confirmed by monitoring the assay over 600 s. Each triplicate assay point contained a 4th control well to monitor and normalize the data with regards to luminescent decay over time. The compounds were initially screened for activity at a concentration of 20 µM. […] The known SMOX inhibitor, MDL-72527, was used as a control. The hit compounds were then characterized by IC50 and kinetic analyses. Percent inhibition values are reported as triplicate mean % SMOX inhibition ± SD compared to the vehicle control. IC50 values were calculated in GraphPad Prism 9.3 software (Graph-Pad, San Diego, California) using a non-linear regression analysis ([Inhibitor] vs. normalized response—variable slope). Data for all enzyme assays were generated using a SpectraMax M5 plate reader (Molecular Devices) equipped with SOFTmax PRO 7.0.3 software.

SMOX [4] = molecular target: T3, SMOX; experiment: Mechanism of inhibition and enzyme kinetics (Lineweaver–Burk, global fit); assay type: biochemical
Procedure: The mechanism of enzyme inhibition was determined using the HRP-luminol coupled enzyme assay described above. Reaction velocity (max RLU/sec over 10 min) was measured across multiple substrate and inhibitor concentrations, and individual triplicate values were plotted using a Lineweaver–Burk transformation (double-reciprocal) in GraphPad Prism 9.3 software (Graph-Pad, San Diego, CA, USA).

Cc1cc([C@H](O)CNCCCNC(=N)N)cc(C)c1O [Compound 6]
CC50 at 12 h [1]: 5.8 mM
Toxicity after 12-h exposure [2]: did not produce significant toxicity
inhibition at 20 µM (recombinant human MAO-B): -13.7 ± 3.8%
inhibition at 20 µM (LSD1): -24.2 ± 4.5%
inhibition at 20 µM (SMOX [3]; 20 µM compound, no pre-incubation, triplicate, read-out: % Inhibition at 20 μM ± SD, SMOX): 99.7 ± 0.1%
IC50 (SMOX [3]; AUC over 60 s, pH 8): 540 nM
Mechanism of inhibition (SMOX [4]; Lineweaver–Burk analysis): competitive
Ki (SMOX [4]; global fit for competitive inhibition, inhibitor 0, 0.1, 1 µM): 1600 nM
